# Test results from patent US20240425456A1, “DEGRADER” (ASKA PHARMACEUTICAL CO., LTD., priority 2021, published 2024).
# Assays:
# Assay type in all cases: cell-based
# [1] = target: T1, JAK1 (Homo sapiens, UniProt P23458); test: Degradation-inducing effect on JAK in Jurkat cells (chemiluminescent Western blotting), JAK1; settings: 1 μmol/L, 6 hours; for JAK protein ratio of Jurkat cells after treatment of each test compound: JAK1: corrected by GAPDH, DMSO as 100%
# T1 construct: endogenous in cells; host or cells: Jurkat cells
# Protocol: (§1) The degradation-inducing effect of the compound of the present invention on JAK family proteins was evaluated in vitro using Jurkat cells, of which cell line was derived from human leukemic T cells.
# (§2) JAK1, JAK2, JAK3, and Tyk2-positive Jurkat cells were seeded at a density of 1×10^5 cells/mL on 10 cm diameter dishes and then cultured in RPMI 1640 medium (FUJIFILM Wako Pure Chemical: catalog number: 189-02025) containing 10% FBS (Thermo Fisher Scientific: catalog number: 10437-028) at 5% CO2 and 37° C. for 3 days. Then, each of the test compounds (compounds of Examples 1 to 11 and Comparative Examples 1 and 2) was added to the dish at a final concentration of 1 μmol/L, and the cells were cultured in the presence of the test compound for 6 hours. After that, the cell culture medium was collected in a 15 mL centrifuge tube (1000 rpm (240× g), room temperature, 5 min), followed by washing with PBS (1000 rpm (240× g), room temperature, 5 min). Then, the cells in the centrifuge tube were collected in a 1.5 mL tube (3000 rpm (860× g), 4° C., 5 min), lysed using RIPA buffer (25 mmol/L Tris-HCl (pH 7.4), 25 mmol/L NaCl, 0.5 mmol/L EGTA (pH 8.0), 0.1% SDS, 1% protease inhibitor), sonicated at ice temperature (cycles of [7.5 sec sonication, 5 sec off] for 5 min) and subjected to centrifugation (15000 rpm (21600× g), 4° C., 30 min). The thus-obtained supernatant was used as the protein solution. Using the BCA protein assay kit (Thermo Fisher Scientific: catalog number: 23225), the protein concentration of the protein solution of each test compound was measured according to the kit instructions, and then adjusted to 1.4 mg/mL with RIPA buffer. The thus-adjusted protein solutions were subjected to a fully automated Western blotting device (Simple Westerns Wes: proteinSimple) to detect the protein levels (JAK1, JAK2, JAK3, and Tyk2 as the target proteins, and GAPDH (Glyceraldehyde 3-phosphate dehydrogenase) as the internal standard protein) in the protein solutions by chemiluminescent Western blotting.
# (§3) Furthermore, the luminescence levels of JAK1, JAK2, JAK3, and Tyk2 detected by chemiluminescent Western blotting were quantified numerically by using an analysis software (Compass software for Simple Western (version 4.0.0)) attached to the fully automated Western blotting device. The numerical values of the quantified luminescence levels were corrected by the protein levels of the internal standard protein, i.e., GAPDH, (target protein levels/GAPDH protein levels), and compared among the test compounds with dimethyl sulfoxide (DMSO) as 100%.
# [2] = target: T2, JAK2 (Homo sapiens, UniProt O60674); test: Degradation-inducing effect on JAK in Jurkat cells (chemiluminescent Western blotting), JAK2; settings: 1 μmol/L, 6 hours, corrected by GAPDH, DMSO as 100%
# T2 construct: endogenous in cells; host or cells: Jurkat cells
# Protocol: as §1, §2, §3
# [3] = target: T3, JAK3 (Homo sapiens, UniProt P52333); test: Degradation-inducing effect on JAK in Jurkat cells (chemiluminescent Western blotting), JAK3; settings: 1 μmol/L, 6 hours, corrected by GAPDH, DMSO as 100%, read-out: JAK protein ratio of Jurkat cells after treatment of each test compound: JAK3
# T3 construct: endogenous in cells; host or cells: Jurkat cells
# T3 sequence (P52333 1-1124): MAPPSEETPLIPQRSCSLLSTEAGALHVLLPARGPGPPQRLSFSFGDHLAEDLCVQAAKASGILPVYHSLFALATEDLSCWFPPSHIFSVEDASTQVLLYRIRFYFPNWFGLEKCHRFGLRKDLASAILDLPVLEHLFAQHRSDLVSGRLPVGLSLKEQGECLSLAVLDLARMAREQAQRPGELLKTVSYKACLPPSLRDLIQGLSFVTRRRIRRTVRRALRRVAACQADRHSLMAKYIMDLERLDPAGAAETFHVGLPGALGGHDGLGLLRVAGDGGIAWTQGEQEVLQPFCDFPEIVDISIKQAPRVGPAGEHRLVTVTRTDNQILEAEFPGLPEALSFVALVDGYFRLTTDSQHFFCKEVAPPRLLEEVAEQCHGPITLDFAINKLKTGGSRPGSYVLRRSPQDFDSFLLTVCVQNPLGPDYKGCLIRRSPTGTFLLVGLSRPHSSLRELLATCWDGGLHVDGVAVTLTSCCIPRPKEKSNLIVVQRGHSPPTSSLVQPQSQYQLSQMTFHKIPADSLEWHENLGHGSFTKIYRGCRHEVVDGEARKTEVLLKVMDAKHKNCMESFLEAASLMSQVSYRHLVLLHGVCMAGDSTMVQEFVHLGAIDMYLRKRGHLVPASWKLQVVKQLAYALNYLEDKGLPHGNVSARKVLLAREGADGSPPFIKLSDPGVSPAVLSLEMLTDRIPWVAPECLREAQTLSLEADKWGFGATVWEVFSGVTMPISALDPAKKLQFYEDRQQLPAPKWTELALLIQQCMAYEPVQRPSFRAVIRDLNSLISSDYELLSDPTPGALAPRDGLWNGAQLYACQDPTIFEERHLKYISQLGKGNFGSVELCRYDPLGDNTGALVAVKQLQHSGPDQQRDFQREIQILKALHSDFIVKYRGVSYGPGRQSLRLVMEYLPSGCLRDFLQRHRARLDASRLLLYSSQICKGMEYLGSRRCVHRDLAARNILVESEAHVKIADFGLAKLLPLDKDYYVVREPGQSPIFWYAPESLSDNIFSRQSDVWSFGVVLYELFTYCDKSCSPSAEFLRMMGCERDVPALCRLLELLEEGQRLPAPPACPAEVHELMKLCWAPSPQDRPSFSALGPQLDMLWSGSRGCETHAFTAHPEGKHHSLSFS
# Protocol: as §1, §2, §3
# [4] = target: T4, Tyk2 (Homo sapiens, UniProt P29597); test: Degradation-inducing effect on JAK in Jurkat cells (chemiluminescent Western blotting), Tyk2; settings: 1 μmol/L, 6 hours; for JAK protein ratio of Jurkat cells after treatment of each test compound: Tyk2: corrected by GAPDH, DMSO as 100%
# T4 construct: endogenous in cells; host or cells: Jurkat cells
# Protocol: as §1, §2, §3
# T4 sequence (P29597 whole entry): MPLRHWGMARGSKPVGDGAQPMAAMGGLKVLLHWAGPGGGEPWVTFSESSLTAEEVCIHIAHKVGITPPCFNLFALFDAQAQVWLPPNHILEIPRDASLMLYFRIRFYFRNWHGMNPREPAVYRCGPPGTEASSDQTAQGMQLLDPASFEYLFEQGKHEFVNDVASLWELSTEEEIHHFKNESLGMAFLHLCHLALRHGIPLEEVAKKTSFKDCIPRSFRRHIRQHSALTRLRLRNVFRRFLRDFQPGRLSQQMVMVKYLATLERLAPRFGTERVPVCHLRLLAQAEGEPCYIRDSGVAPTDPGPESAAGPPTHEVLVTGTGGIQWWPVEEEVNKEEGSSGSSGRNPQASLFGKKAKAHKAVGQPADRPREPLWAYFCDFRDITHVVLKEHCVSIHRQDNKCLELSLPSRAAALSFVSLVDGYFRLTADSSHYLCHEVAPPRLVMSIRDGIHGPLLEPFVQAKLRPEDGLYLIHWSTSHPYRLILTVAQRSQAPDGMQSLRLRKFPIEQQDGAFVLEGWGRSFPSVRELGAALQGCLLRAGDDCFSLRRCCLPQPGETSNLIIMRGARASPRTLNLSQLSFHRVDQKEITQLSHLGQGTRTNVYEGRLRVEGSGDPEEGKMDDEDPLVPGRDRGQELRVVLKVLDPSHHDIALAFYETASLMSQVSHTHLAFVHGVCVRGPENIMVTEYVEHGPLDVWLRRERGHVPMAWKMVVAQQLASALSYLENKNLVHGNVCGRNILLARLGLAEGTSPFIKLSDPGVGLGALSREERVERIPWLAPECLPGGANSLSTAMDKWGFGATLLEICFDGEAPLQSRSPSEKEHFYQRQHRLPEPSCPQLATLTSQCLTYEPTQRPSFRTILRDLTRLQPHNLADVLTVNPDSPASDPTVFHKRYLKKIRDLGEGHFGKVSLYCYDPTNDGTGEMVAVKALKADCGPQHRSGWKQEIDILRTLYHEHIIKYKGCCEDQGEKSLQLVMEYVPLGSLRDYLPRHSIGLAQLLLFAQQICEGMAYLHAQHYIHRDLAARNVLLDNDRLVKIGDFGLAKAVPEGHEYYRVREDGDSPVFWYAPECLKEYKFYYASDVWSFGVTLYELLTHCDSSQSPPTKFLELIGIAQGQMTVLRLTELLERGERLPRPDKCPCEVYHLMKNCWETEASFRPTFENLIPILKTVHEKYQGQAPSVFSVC
# T1 sequence (P23458 whole entry): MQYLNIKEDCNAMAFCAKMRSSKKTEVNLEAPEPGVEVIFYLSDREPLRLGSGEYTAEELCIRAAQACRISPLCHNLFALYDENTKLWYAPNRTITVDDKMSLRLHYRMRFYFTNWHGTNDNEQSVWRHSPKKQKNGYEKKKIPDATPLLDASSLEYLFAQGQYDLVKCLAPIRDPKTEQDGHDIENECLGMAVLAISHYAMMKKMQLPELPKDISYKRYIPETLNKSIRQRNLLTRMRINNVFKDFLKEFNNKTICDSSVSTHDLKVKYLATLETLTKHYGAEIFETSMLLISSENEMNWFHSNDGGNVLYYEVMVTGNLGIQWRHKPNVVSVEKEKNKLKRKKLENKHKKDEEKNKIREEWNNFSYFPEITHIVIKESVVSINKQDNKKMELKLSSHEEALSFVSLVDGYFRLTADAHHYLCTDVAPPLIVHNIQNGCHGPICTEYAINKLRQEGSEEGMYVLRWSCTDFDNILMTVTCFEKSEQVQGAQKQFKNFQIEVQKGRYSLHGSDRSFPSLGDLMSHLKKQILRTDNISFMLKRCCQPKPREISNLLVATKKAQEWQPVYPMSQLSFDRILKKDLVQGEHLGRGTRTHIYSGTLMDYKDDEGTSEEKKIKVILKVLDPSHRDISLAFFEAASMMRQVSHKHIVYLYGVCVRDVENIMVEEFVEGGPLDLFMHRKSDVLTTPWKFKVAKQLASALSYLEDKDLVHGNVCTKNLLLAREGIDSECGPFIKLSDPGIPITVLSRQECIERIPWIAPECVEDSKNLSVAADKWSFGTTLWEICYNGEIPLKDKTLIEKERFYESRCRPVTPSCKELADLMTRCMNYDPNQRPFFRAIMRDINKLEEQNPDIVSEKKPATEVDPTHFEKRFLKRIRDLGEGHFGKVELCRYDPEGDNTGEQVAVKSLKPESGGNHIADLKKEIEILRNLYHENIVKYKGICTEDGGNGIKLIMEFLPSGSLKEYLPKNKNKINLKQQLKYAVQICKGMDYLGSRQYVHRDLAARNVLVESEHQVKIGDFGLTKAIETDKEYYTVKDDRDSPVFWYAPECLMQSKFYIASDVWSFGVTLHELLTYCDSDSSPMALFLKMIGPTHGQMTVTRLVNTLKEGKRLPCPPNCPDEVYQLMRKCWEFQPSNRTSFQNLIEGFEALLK
# T2 sequence (O60674 whole entry): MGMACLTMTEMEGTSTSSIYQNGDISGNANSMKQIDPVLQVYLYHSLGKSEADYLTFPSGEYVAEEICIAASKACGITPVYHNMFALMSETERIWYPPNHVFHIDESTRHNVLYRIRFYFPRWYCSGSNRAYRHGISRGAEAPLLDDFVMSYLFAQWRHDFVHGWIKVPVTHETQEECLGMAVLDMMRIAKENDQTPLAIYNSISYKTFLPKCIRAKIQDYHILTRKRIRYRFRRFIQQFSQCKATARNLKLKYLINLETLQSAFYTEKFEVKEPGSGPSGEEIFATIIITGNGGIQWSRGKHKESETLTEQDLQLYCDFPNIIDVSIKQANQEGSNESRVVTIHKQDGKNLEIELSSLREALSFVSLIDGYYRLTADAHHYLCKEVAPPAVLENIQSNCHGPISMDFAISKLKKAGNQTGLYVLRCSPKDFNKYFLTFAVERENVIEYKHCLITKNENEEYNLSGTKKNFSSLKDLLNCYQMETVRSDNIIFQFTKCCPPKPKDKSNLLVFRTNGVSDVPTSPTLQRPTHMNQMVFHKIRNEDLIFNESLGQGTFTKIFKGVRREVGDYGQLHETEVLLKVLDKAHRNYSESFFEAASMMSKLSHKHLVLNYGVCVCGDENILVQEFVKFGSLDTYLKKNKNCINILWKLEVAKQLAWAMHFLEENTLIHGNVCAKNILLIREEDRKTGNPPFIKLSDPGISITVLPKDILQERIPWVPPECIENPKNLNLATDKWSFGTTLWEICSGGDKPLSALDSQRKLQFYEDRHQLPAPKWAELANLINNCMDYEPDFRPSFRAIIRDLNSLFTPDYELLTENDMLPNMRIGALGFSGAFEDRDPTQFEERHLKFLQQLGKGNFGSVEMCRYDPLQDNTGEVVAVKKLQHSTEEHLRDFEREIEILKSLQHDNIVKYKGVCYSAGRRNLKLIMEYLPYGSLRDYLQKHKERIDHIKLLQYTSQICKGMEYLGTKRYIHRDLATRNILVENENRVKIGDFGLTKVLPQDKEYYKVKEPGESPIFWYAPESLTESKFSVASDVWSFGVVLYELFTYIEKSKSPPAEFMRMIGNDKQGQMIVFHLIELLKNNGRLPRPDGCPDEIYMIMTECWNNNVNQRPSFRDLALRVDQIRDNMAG
SMILES,protein level of JAK1 (in words) [1],JAK protein ratio of Jurkat cells after treatment of each test compound: JAK1 [1],JAK protein ratio of Jurkat cells after treatment of each test compound: JAK2 [2],JAK3 protein level relative to DMSO at 1 µM [3],JAK protein ratio of Jurkat cells after treatment of each test compound: Tyk2 [4],protein level of Tyk2 (in words) [4]
"CNC(=O)c1cccc(Nc2cc(Nc3ccc(C(=O)NCCCCCCCCCC(=O)N[C@H](C(=O)N4C[C@H](O)C[C@H]4C(=O)NCc4ccc(-c5scnc5C)cc4)C(C)(C)C)cn3)ncc2C(N)=O)c1OC [Example 9, 6-((5-Carbamoyl-4-((2-methoxy-3-(methylcarbamoyl)phenyl)amino)pyridin-2-yl)amino)-N-(10-(((S)-1-((2S,4R)-4-hydroxy-2-((4-(4-methylthiazol-5-yl)benzyl)carbamoyl)pyrrolidin-1-yl)-3,3-dimethyl-1-oxobutan-2-yl)amino)-10-oxodecyl) nicotinamide]",reduced,57.6%,115.9%,99.3%,15.4%,
"CNC(=O)c1cnc(Nc2ccc(C(=O)NCCCCCCCCC(=O)N[C@H](C(=O)N3C[C@H](O)C[C@H]3C(=O)NCc3ccc(-c4scnc4C)cc3)C(C)(C)C)cn2)cc1Nc1cccc(C(=O)NC)c1OC [Example 4, 6-((5-((9-(((S)-1-((2S,4R)-4-Hydroxy-2-((4-(4-methylthiazol-5-yl)benzyl)carbamoyl)pyrrolidin-1-yl)-3,3-dimethyl-1-oxobutan-2-yl)amino)-9-oxononyl)carbamoyl)pyridin-2-yl)amino)-4-((2-methoxy-3-(methylcarbamoyl)phenyl)amino)-N-methylnicotinamide]",,129.1%,158.8%,129%,41.7%,
"CNC(=O)c1cnc(Nc2ccc(C(=O)NCCCCCCCCCC(=O)N[C@H](C(=O)N3C[C@@H](O)C[C@H]3C(=O)NCc3ccc(-c4scnc4C)cc3)C(C)(C)C)cn2)cc1Nc1cccc(C(=O)NC)c1OC [Example 8, 6-((5-((10-(((S)-1-((2S,4S)-4-Hydroxy-2-((4-(4-methylthiazol-5-yl)benzyl)carbamoyl)pyrrolidin-1-yl)-3,3-dimethyl-1-oxobutan-2-yl)amino)-10-oxodecyl)carbamoyl)pyridin-2-yl)amino)-4-((2-methoxy-3-(methylcarbamoyl)phenyl)amino)-N-methylnicotinamide]",,102.6%,122.5%,99%,97.0%,not reduced
"CNC(=O)c1cnc(Nc2ccc(C(=O)NCCCCCC(=O)N[C@H](C(=O)N3C[C@H](O)C[C@H]3C(=O)NCc3ccc(-c4scnc4C)cc3)C(C)(C)C)cn2)cc1Nc1cccc(C(=O)NC)c1OC [Example 2, 6-((5-((6-(((S)-1-((2S,4R)-4-Hydroxy-2-((4-(4-methylthiazol-5-yl)benzyl)carbamoyl)pyrrolidin-1-yl)-3,3-dimethyl-1-oxobutan-2-yl)amino)-6-oxohexyl)carbamoyl)pyridin-2-yl)amino)-4-((2-methoxy-3-(methylcarbamoyl)phenyl)amino)-N-methylnicotinamide]",,139.2%,112.6%,118%,48.8%,
"CNC(=O)c1cnc(Nc2ccc(C(=O)NCCCCCCCCCCC(=O)N[C@H](C(=O)N3C[C@H](O)C[C@H]3C(=O)NCc3ccc(-c4scnc4C)cc3)C(C)(C)C)cn2)cc1Nc1cccc(C(=O)NC)c1OC [Example 6, 6-((5-((11-(((S)-1-((2S,4R)-4-Hydroxy-2-((4-(4-methylthiazol-5-yl)benzyl)carbamoyl)pyrrolidin-1-yl)-3,3-dimethyl-1-oxobutan-2-yl)amino)-11-oxoundecyl)carbamoyl)pyridin-2-yl)amino)-4-((2-methoxy-3-(methylcarbamoyl)phenyl)amino)-N-methylnicotinamide]",,113.2%,139.8%,122%,30.3%,
CNC(=O)c1cnc(Nc2ccc(C(=O)NCCCC(=O)N[C@H](C(=O)N3C[C@H](O)C[C@H]3C(=O)NCc3ccc(-c4scnc4C)cc3)C(C)(C)C)cn2)cc1Nc1cccc(C(=O)NC)c1OC [Example 1],,111.9%,121.3%,114%,82.8%,
"CNC(=O)c1cnc(Nc2ccc(F)cn2)cc1Nc1cccc(C(=O)NCCCCCCCCCC(=O)N[C@H](C(=O)N2C[C@H](O)C[C@H]2C(=O)NCc2ccc(-c3scnc3C)cc2)C(C)(C)C)c1OC [Comparative Example 1, 6-((5-Fluoropyridin-2-yl)amino)-4-((3-((10-(((S)-1-((2S,4R)-4-hydroxy 2-((4-(4-methylthiazol-5-yl)benzyl)carbamoyl)pyrrolidin-1-yl)-3,3-dimethyl-1-oxobutan-2-yl)amino)-10-oxodecyl)carbamoyl)-2-methoxyphenyl)amino)-N-methylnicotinamide, reference compound]",,92.4%,87.6%,83.3%,78.9%,not reduced
"CNC(=O)c1cnc(Nc2ccc(C(=O)NCCCCCCCCCC(=O)N[C@H](C(=O)N3C[C@H](O)C[C@H]3C(=O)NCc3ccc(-c4scnc4C)cc3)C(C)(C)C)cn2)cc1Nc1cccc(-c2ncn(C)n2)c1OC [Example 10, 6-((5-((10-(((S)-1-((2S,4R)-4-hydroxy-2-((4-(4-methylthiazol-5-yl)benzyl)carbamoyl)pyrrolidin-1-yl)-3,3-dimethyl-1-oxobutan-2-yl)amino)-10-oxodecyl)carbamoyl)pyridin-2-yl)amino)-4-((2-methoxy-3-(1-methyl-^1H-1,2,4-triazol-3-yl)phenyl)amino)-N-methylnicotinamide]",,90.5%,114.1%,111%,31.2%,
